The record followed here is ChEMBL document CHEMBL1140124, “Triterpenoids from the leaves of Diospyros kaki (persimmon) and their inhibitory effects on protein tyrosine phosphatase 1B” (J Nat Prod, 2008).

pIC50: −log10 of the molar value.

The target in the experiment is T1, Tyrosine-protein phosphatase non-receptor type 1 (Homo sapiens, UniProt P18031).
T1 sequence (P18031 whole entry): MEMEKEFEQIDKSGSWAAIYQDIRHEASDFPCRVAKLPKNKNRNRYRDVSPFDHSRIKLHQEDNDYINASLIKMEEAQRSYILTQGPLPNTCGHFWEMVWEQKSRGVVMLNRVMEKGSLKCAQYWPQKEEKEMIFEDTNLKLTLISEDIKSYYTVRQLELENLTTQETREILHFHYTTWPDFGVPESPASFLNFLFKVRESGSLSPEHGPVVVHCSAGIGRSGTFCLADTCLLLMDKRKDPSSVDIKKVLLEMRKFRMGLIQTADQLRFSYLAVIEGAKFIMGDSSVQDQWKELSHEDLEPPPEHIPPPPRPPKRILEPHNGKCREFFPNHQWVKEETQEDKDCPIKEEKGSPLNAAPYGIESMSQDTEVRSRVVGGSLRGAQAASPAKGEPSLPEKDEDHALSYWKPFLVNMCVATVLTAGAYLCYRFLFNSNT
The experiment is described as follows: Inhibition of human recombinant PTP1B after 30 mins.

As for `C[C@@H]1CC[C@]2(C(=O)O)CC[C@]3(C)C(=CC[C@@H]4[C@@]5(C)CC[C@H](O)C(C)(C)[C@@H]5CC[C@]43C)[C@@H]2[C@]1(C)O` [POMOLIC ACID], the pIC50 (usually the IC50 on a negative log10 scale, so that one unit is a factor of ten) is 5.41.
As for `C=C1CC[C@]2(C(=O)O)CC[C@]3(C)C(=CC[C@@H]4[C@@]5(C)CC[C@@H](O)[C@](C)(C(=O)O)[C@@H]5CC[C@]43C)[C@@H]2[C@]1(C)O` [DIOSPYRIC ACID A], the pIC50 was < 4.52.
With `C[C@@]1(CO)CC[C@]2(C(=O)O)CC[C@]3(C)C(=CC[C@@H]4[C@@]5(C)CC[C@@H](O)[C@](C)(CO)[C@@H]5CC[C@]43C)[C@@H]2C1`, the negative-log IC50 (pIC50) is < 4.52.
For `CCCCCCCCCCCCCCCC(=O)C1=C(O)[C@@H](CO)OC1=O` the value was 5.39.
As to `CC1(C)CC[C@]2(C(=O)O)CC[C@]3(C)C(=CC[C@@H]4[C@@]5(C)CCC(=O)C(C)(C)[C@@H]5CC[C@]43C)[C@@H]2C1` [OLEANONIC ACID], the negative logarithm of the IC50 (pIC50) was 5.46.
To `C[C@@H]1CC[C@]2(C(=O)O)CC[C@]3(C)C(=CC[C@@H]4[C@@]5(C)CC[C@@H](O)[C@](C)(C(=O)O)[C@@H]5CC[C@]43C)[C@@H]2[C@]1(C)O` [DIOSPYRIC ACID B] belongs < 4.52; to `C[C@H]1[C@H](C)CC[C@]2(C(=O)O)CC[C@]3(C)C(=CC[C@@H]4[C@@]5(C)CC[C@H](O)[C@](C)(CO)[C@@H]5CC[C@]43C)[C@H]12`, 4.89.
To `C[C@@H]1CC[C@]2(C(=O)O)CC[C@]3(C)C(=CC[C@@H]4[C@@]5(C)CC[C@@H](O)[C@](C)(CO)[C@@H]5CC[C@]43C)[C@@H]2[C@]1(C)O` [BARBINERVIC ACID] belongs < 4.52.
For `CC1(C)CC[C@]2(C(=O)O)CC[C@]3(C)C(=CC[C@@H]4[C@@]5(C)CC[C@@H](O)[C@](C)(CO)[C@@H]5CC[C@]43C)[C@@H]2C1` [SCUTELLARIC ACID] the value was < 4.52; for `C[C@@H]1CC[C@]2(C(=O)O)CC[C@]3(C)C(=CC[C@@H]4[C@@]5(C)CC[C@H](O)[C@](C)(CO)[C@@H]5CC[C@]43C)[C@@H]2[C@]1(C)O` [ROTUNGENIC ACID], 4.96; for `C[C@@H]1CC[C@]2(C(=O)O)CC[C@]3(C)C(=CC[C@@H]4[C@@]5(C)CCC(=O)[C@](C)(CO)[C@@H]5CC[C@]43C)[C@@H]2[C@]1(C)O`, 5.09.
For the molecule `CC1(C)CC[C@]2(C(=O)O)CC[C@]3(C)C(=CC[C@@H]4[C@@]5(C)CC[C@H](O)[C@](C)(CO)[C@@H]5CC[C@]43C)[C@@H]2[C@@H]1O` [SPATHODIC ACID], the pIC50 was 4.73.
For `C[C@H]1[C@H](C)CC[C@]2(C(=O)O)CC[C@]3(C)C(=CC[C@@H]4[C@@]5(C)CC[C@@H](O)[C@](C)(CO)[C@@H]5CC[C@]43C)[C@H]12` the value was < 4.52; for `C=C1CC[C@]2(C(=O)O)CC[C@]3(C)C(=CC[C@@H]4[C@@]5(C)CC[C@@H](O)[C@](C)(CO)[C@@H]5CC[C@]43C)[C@@H]2[C@]1(C)O` [COUSSARIC ACID], < 4.52.
